Reference: patent EP0643060A2, “Sulfonylbenzyl-substituted benzimidazoles, process for their preparation, and their pharmaceutical use” (BAYER AG, priority 1993, dated 1995)
Read-outs that look alike come from different tables or passages of the source.

Experiments:
Angiotensin II-Rezeptor = molecular target: T1, Angiotensin II-Rezeptor (Bos taurus, UniProt P25104); experiment: Angiotensin II receptor binding on membrane fractions of bovine adrenal cortex (3H-angiotensin II); design: species or system Rind; details: bovine adrenal cortex membranes, 3H-Angiotensin II 3-5 nM, 60 min, room temperature
T1 construct: an partiell gereinigten Membranfraktionen boviner NNR mit radioaktivem Angiotensin II; from tissue; host or cells: bovine adrenal cortex, partially purified membrane fractions
T1 sequence (P25104 1-359): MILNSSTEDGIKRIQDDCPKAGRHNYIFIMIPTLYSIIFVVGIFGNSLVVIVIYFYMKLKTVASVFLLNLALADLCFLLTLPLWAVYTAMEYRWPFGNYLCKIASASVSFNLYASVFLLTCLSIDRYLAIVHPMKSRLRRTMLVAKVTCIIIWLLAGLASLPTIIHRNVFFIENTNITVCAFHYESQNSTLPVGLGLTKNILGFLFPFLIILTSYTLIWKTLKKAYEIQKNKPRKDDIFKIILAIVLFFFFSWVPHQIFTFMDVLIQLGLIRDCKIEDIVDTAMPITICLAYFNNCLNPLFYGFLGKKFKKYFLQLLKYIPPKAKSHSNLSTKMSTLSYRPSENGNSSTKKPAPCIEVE
Procedure: Nebennierenrinden vom Rind (NNR), die frisch entnommen und sorgfältig von Mark von Kapsel befreit sind, werden in Sucrose-Lösung (0,32 M) mit Hilfe eines Ultra-Turrax (Janke & Kunkel, Staufen i.B.) zu grobem Membran-Homogenat zerkleinert und in zwei Zentrifugationsschritten zu Membranfraktionen partiell aufgereinigt. Die Untersuchungen zur Rezeptor-Bindung werden an partiell gereinigten Membranfraktionen boviner NNR mit radioaktivem Angiotensin II in einem Assay-Volumen von 0,25 ml durchgeführt, das im einzelnen die partiell gereinigten Membranen (50 - 80 µg), ³H-Angiotensin II (3-5 nM), Test-Pufferlösung (50 mM Tris, pH 7,2, 5 mM MgCl₂ sowie die zu untersuchenden Substanzen enthält. Nach einer Inkubationszeit von 60 min bei Raumtemperatur wird die nicht gebundene Radioaktivität der Proben mittels angefeuchteter Glasfaserfilter (Whatman GF/C) separiert und die gebundene Radioaktivität nach Waschung des Proteins mit eiskalter Pufferlösung (50 mM Tris/HCl, pH 7,4, 5% PEG 6000) in einem Szintillationscocktail […] gemessen. Die Analyse der Rohdaten erfolgte mit Computer-Programmen zu Ki- bzw. IC₅₀-Werten (Ki: für die verwendete Radioaktivität korrigierte IC₅₀-Werte; IC₅₀-Werte: Konzentration bei der die zu untersuchende Substanz eine 50%ige Hemmung der spezifischen Bindung des Radioliganden bewirkt).

[1] = tested on: isolierten Aortenringen von Kaninchen; experiment: Inhibition of angiotensin II-induced contraction of isolated rabbit aortic rings; format: cell-based; details: isolated rabbit aortic rings in vitro; effect at 3rd (submaximal) agonist concentration; read-out: IC50 gegen Kontraktionen, induziert durch AII
Procedure: Kaninchen beiderlei Geschlechts werden durch Nackenschlag betäubt und entblutet, oder fallweise mit Nembutal (ca. 60 - 80 mg/kg i.v.) narkotisiert und durch Öffnung des Thorax getötet. Die Thoraxaorta wird entnommen, von anhaftendem Bindegewebe befreit, in 1,5 mm breite Ringsegmente geteilt und einzeln unter einer Anfangsbelastung von ca. 3,5 g in 10 ml Organbäder mit auf 37°C temperierter, Carbogen-begaster Krebs-Henseleit-Nährlösung folgender Zusammensetzung: 119 mmol/l NaCl; 2,5 mmol/l CaCl₂ x 2 H₂O; 1,2 mmol/l KH₂PO₄; 10 mmol/l Glucose; 4,8 mmol/l KCl; 1,4 mmol/l MgSO₄ x 7 H₂O und 25 mmol/l NaHCO₃ verbracht.
Die Kontraktionen werden isometrisch durch Statham UC2-Zellen über Brückenverstärker (ifd Mülheim bzw. DSM Aalen) erfaßt und mittels A/D-Wandler (System 570, Keithley München) digitalisiert sowie ausgewertet. Die Durchführung von Agonistdosiswirkungskurven (DWK) erfolgt stündlich. Mit jeder DWK werden 3 bzw. 4 Einzelkonzentrationen im 4 min-Abstand in die Bäder appliziert. Nach Ende der DWK und darauffolgender Auswaschzyklen (16 mal jeweils ca. 5 sec/min mit der o.a. Nährlösung) schließt sich eine 28-minütige Ruhe- bzw. Inkubationsphase an, innerhalb derer die Kontraktionen in der Regel wieder den Ausgangswert erreichen.
Die Höhe der im Normalfall 3. […]

SMILES	Ki (Angiotensin II-Rezeptor)	also measured
CCCCc1nc2cccc(C(=O)OC)c2n1Cc1ccc(S(=O)(=O)N2CCC[C@H]2C(=O)OC(C)(C)C)cc1F [Beispiel 4]	–	Ki (Angiotensin II-Rezeptor; read-out: Ki): 735 nM
CCCCc1nc2cccc(C(=O)OC)c2n1Cc1ccc(S(=O)(=O)N2CCCC2C(=O)O)cc1Cl (stereo in doubt) [Beispiel 2, (S)-2-Butyl-1-[3-chlor-1-(N-2'-carboxy-pyrrolidinyl)-sulfonyl]-7-methoxycarbonyl-benz[d]imidazol]	–	IC50 [1]: 46 nM
CCCCc1nc2cccc(C(=O)O)c2n1Cc1ccc(S(=O)(=O)N2CCC[C@H]2C(=O)O)cc1Cl [Beispiel 3, (S)-2-Butyl-7-carboxy-1-[3-chlor-1-(N-2-carboxy-pyrrolidinyl)-sulfonyl]-benz[d]imidazol]	48 nM	–
CCCCc1nc2cccc(C(=O)O)c2n1Cc1ccc(S(=O)(=O)N2CCC[C@H]2C(=O)O)cc1Cl [Beispiel 7, (S)-2-Butyl-7-carboxy-1-[3-chlor-1-(N-2-carboxypyrrolidinyl)-sulfonyl]benz[d]imidazol Bis Kaliumsalz]	260 nM	–
